Earlier results in PMC6759624, “Unraveling Heparan Sulfate Proteoglycan Binding Motif for Cancer Cell Selectivity” (Frontiers in Oncology, 2019).

Settings: ref [13], [19] (b5); cited from earlier work
Description: NT4 peptides can be conjugated with different functional units and can selectively deliver drugs for cancer therapy or transport tracers for tumor imaging ([11], [12], [15]–[18]). […] NT4 transports the chemotherapeutic moiety to the cancer cell membrane and, ultimately, into the cell ([14]–[16]).

(pyELYENKPRRPYIL)4K2K-beta-Ala [NT4]
binding to heparan sulfate: preferential high-affinity binding
binding to heparin: preferential high-affinity binding
